Where two headings read alike, the source gives them in different places.
How the values were obtained:
T-tropic HIV = settings: patients that are dual tropic or where only the T-tropic form is present; cited from earlier work
CXCR4 receptor = target: T1, CXCR4 receptor (Homo sapiens, UniProt P61073); experiment: Functional FLIPR assay (block of SDF-1 alpha induced [Ca2+]i change); assay type: cell-based; settings: HEK-293 cells with human CXCR4 BacMam and Gqi5 BacMam; antagonism of SDF-1 alpha; read-out: Functional assay (pIC50) (converted)
T1 construct: expressed in transfected cells; host or cells: HEK-293 cells (stably expressing human macrophage scavenging receptor) transduced with human CXCR4 BacMam and Gqi5 BacMam
T1 sequence (P61073 whole entry): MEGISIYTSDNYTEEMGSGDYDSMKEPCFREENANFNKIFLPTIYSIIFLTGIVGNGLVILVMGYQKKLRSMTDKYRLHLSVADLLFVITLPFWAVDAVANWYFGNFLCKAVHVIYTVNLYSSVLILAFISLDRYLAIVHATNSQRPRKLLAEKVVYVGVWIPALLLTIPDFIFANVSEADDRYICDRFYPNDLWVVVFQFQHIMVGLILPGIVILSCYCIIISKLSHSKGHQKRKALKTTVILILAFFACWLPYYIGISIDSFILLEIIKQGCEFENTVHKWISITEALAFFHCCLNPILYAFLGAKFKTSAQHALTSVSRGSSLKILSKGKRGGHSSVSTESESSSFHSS
Method: Human embryonic kidney (HEK-293) cells were maintained and harvested as described above. Cells were plated in 96-well, black clear bottom, poly-lysine coated plates at a concentration of 40,000 cells per well in a final volume of 100 ul containing human CXCR4 BacMam (MOI=25) and Gqi5 BacMam (MOI=12.5). The cells were incubated at 37° C., 5% CO2, 95% humidity for 24 h to allow for protein expression.
After the required incubation time the cells were washed once with 50 ul of fresh serum-free DMEM/F12 media containing probenicid. 50 ul of dye solution was then added to the cells (Calcium Plus Assay Kit Dye; Molecular Devices) was dissolved in 200 ml of the above probenicid/BSA containing media and incubated for 1 h. Cell plates were transferred to a Fluorometric Imaging Plate Reader (FLIPR). Upon addition the effect of the compounds on the change in [Ca^2+]i was examined to determine if the compounds were agonists or antagonists (ability to block SDF-1 alpha activity) at the CXCR4 receptor. IC50 values are determined and pKb values are calculated using the Leff and Dougall equation: KB=IC50/((2+([agonist]/EC50̂b)̂1/b -1) Where IC50 is that defined by the antagonist concentration-response curve [agonist] is the EC80 concentration of agonist used EC50 is that defined by the agonist concentration-response curve b is the slope of the agonist concentration-response curve.

[1] = system: HIV-1 gp160 (HXB2 strain) mediated fusion with HOS (hCXCR4/hCCR5/hCD4/pHIV-LTR-luciferase) cells; experiment: Cell/cell fusion assay (HEK-293 expressing HIV-1 tat, rev, gp160 with HOS hCXCR4/hCCR5/hCD4/pHIV-LTR-luciferase cells); assay type: cell-based; settings: Homo sapiens, HEK293; luciferase readout after 24 h; read-out: Fusion assay (pIC50) (converted)
From the text: The complete coding sequences of HIV-1 tat (GenBank Accession No. X07861) and rev (GenBank Accession No. M34378) were cloned into pcDNA3.1 expression vectors containing G418 and hygromycin resistance genes, respectively. The complete coding sequence of the HIV-1 (HXB2 strain) gp160 envelope gene (nucleotide bases 6225-8795 of GenBank Accession No. K03455) was cloned into plasmid pCRII-TOPO. The three HIV genes were additionally inserted into the baculovirus shuttle vector, pFastBacMam1, under the transcriptional control of the CMV promoter. A construction of the pHIV-I LTR containing mutated NFkB sequences linked to the luciferase reporter gene was prepared by digesting pcDNA3.1, containing the G418 resistance gene, with Nru I and Bam HI to remove the CMV promoter. LTR-luc was then cloned into the Nru I/Bam HI sites of the plasmid vector. Plasmid preparations were performed after the plasmids were amplified in Escherichia coli strain DH5-alpha. The fidelity of the inserted sequences was confirmed by double-strand nucleotide sequencing using an ABI Prism Model 377 automated sequencer.
Recombinant BacMam baculoviruses were constructed from pFastBacMam shuttle plasmids by using the bacterial cell-based Bac-to-Bac system. Viruses were propagated in Sf9 (Spodoptera frugiperda) cells cultured in Hink's TNM-FH Insect media supplemented with 10% (v/v) fetal bovine serum and 0.1% (v/v) pluronic F-68 according to established protocols.
Human osteosarcoma (HOS) cells that naturally express human CXCR4 were transfected with human CCR5, human CD4 and the pHIV-LTR-luciferase plasmid using FuGENE 6 transfection reagent. Single cells were isolated and grown under selection condition in order to generate a stable HOS (hCXCR4/hCCR5/hCD4/pHIV-LTR-luciferase) clonal cell line. The cells were maintained in Dulbeccos modified Eagles media supplemented with 10% fetal calf serum (FCS), G418 (400 ug/ml), puromycin (1 ug/ml), mycophenolic acid (40 ug/ml), xanthine (250 ug/ml) and hypoxanthine (13.5 ug/ml) to maintain a selection pressure for cells expressing the LTR-luciferase, hCCR5 and hCD4, respectively. Human embryonic kidney (HEK-293) cells stably transfected to express the human macrophage scavenging receptor (Class A, type 1; GenBank Accession No. D90187), were maintained in DMEM/F-12 media (1:1) supplemented with 10% FCS and 1.5 ug/ml puromycin. The expression of this receptor by the HEK-293 cells enhances their ability to stick to tissue culture treated plasticware.
HEK-293 cells were harvested using enzyme-free cell dissociation buffer. The cells were resuspended in DMEM/F-12 media supplemented with 10% FCS and 1.5 ug/ml and counted. Tranductions were performed by direct addition of BacMam baculovirus containing insect cell media to cells. The cells were simultaneously transduced with BacMam baculovirus expressing HIV-1 tat, HIV-1 rev and HIV-1 gp160 (from the HXB2 HIV strain). Routinely an MOI of 10 of each virus was added to the media containing the cells. 2 mM butyric acid was also added to the cells at this stage to increase protein expression in transduced cells. The cells were subsequently mixed and seeded into a flask at 30 million cells per T225. The cells were incubated at 37° C., 5% CO2, 95% humidity for 24 h to allow for protein expression.
HEK and HOS cells were harvested in DMEM/F-12 media containing 2% FCS and DMEM media containing 2% FCS, respectively, with no selection agents added. Compounds were plated as 1 ul spots in 100% DMSO on a 96-well CulturPlate plates. HOS cells (50 ul) were added first to the wells, followed immediately by the HEK cells (50 ul). The final concentration of each cell type was 20,000 cells per well. Following these additions, the cells were returned to a tissue culture incubator (37° C.; 5% CO2/95% air) for an additional 24 h.
Following the 24 h incubation, total cellular luciferase activity was measured using the LucLite Plus assay kit (Packard, Meridien, Conn.). […]

[2] = Compound cytotoxicity in the absence of virus (CellTiter-Glo); assay type: cell-based; settings: human; non-infected HOS cultures, cell viability; read-out: Cytotox (pIC50) (converted)
Method: (§1) Compounds were profiled against two HIV-1 viruses, the M-tropic (CCR5 utilizing) Ba-L strain and the T-tropic (CXCR4 utilizing) IIIB strain. Both viruses were propagated in human peripheral blood lymphocytes. Compounds were tested for there ability to block infection of the HOS cell line (expressing hCXCR4/hCCR5/hCD4/pHIV-LTR-luciferase) by either HIV-1 Ba-L or HIV-1 IIIB. Compound cytotoxicity was also examined in the absence of virus addition.
(§2) HOS cells (expressing hCXCR4/hCCR5/hCD4/pHIV-LTR-luciferase) were harvested and diluted in Dulbeccos modified Eagles media supplemented with 2% FCS and non-essential amino acid to a concentration of 60,000 cells/ml. The cells were plated into 96-well plates (100 ul per well) and the plates were placed in a tissue culture incubator (37° C.; 5% CO2/95% air) for a period of 24 h.
(§3) Subsequently, 50 ul of the desired drug solution (4 times the final concentration) was added to each well and the plates were returned to the tissue culture incubator (37° C.; 5% CO2/95% air) for 1 h. Following this incubation 50 ul of diluted virus was added to each well (approximately 2 million RLU per well of virus). The plates were returned to the tissue culture incubator (37° C.; 5% CO2/95% air) and were incubated for a further 96 h.
(§4) Following this incubation the endpoint for the virally infected cultures was quantified following addition of Steady-Glo Luciferase assay system reagent (Promega, Madison, Wis.). Cell viability or non-infected cultures was measured using a CellTiter-Glo luminescent cell viability assay system (Promega, Madison, Wis.). All luminescent readouts are performed on a Topcount luminescence detector (Packard, Meridien, Conn.).

[3] = system: HIV-1 IIIB strain, T-tropic (CXCR4 utilizing); experiment: HOS HIV-1 infectivity assay; assay type: cell-based
Method: as §1, §2, §3, §4

[4] = Human immunodeficiency virus 1, IIIB, HOS HIV anti-infectivity assay, strain not named in Table 2, read-out: Activity Level
[5] = Human immunodeficiency virus 1, HOS cells, HIV-1 IIIB, 96 h, luciferase, read-out: HOS (3B)
[6] = Human immunodeficiency virus 1, IIIB, HOS, 96 h, read-out: HOS (3B) (μM)
[7] = Human immunodeficiency virus 1, IIIB, read-out: Activity Level

Row | Structure (SMILES) | T-tropic HIV viral load (T-tropic HIV) | IC50 (CXCR4 receptor) | IC50 [1] | IC50 at 96 h [2] | IC50 [3, 4] | IC50 [3, 5] | IC50 [3, 6] | IC50 [3, 7]
1 | c1cc(CN2CCCNCCNCCCNCC2)ccc1CN1CCCNCCNCCCNCC1 [AMD-3100] | significantly reduce T-tropic HIV viral load | – | – | – | – | – | – | –
2 | NCCCCN(Cc1cn2cc(Cl)cc(Cl)c2n1)C1CCCc2cccnc21 (centres unmarked) [Example 16, N-[(6,8-Dichloroimidazo[1,2-a]pyridin-2-yl)methyl]-N-(5,6,7,8-tetrahydro-8-quinolinyl)-1,4-butanediamine] | – | 49 nM | 1290 nM | > 100000 nM | 0.1 to 0.5 µM | 0.133 µM | – | –
3 | NCCCCN(Cc1cn2cc(C(F)(F)F)cc(Cl)c2n1)C1CCCc2cccnc21 (centres unmarked) [Example 17, N-{[8-Chloro-6-(trifluoromethyl)imidazo[1,2-a]pyridin-2-yl]methyl}-N-(5,6,7,8-tetrahydro-8-quinolinyl)-1,4-butanediamine] | – | 347 nM | 3890 nM | > 100000 nM | – | – | 0.3 µM | 0.1 to 0.5 µM
4 | Cc1c(Br)ccc2nc(CN(CCCCN)C3CCCc4cccnc43)cn12 (centres unmarked) [Example 18, N-[(6-Bromo-5-methylimidazo[1,2-a]pyridin-2-yl)methyl]-N-(5,6,7,8-tetrahydro-8-quinolinyl)-1,4-butanediamine] | – | 30.9 nM | 155 nM | > 100000 nM | < 0.1 µM | 0.088 µM | – | –
5 | Cc1cc(Br)cn2cc(CN(CCCCN)C3CCCc4cccnc43)nc12 (centres unmarked) [Example 19, N-[(6-Bromo-8-methylimidazo[1,2-a]pyridin-2-yl)methyl]-N-(5,6,7,8-tetrahydro-8-quinolinyl)-1,4-butanediamine] | – | 67.6 nM | 537 nM | > 100000 nM | 0.1 to 0.5 µM | 0.14 µM | – | –
6 | Cc1cc(Br)c2nc(CN(CCCCN)C3CCCc4cccnc43)cn2c1 (centres unmarked) [Example 20, N-[(8-Bromo-6-methylimidazo[1,2-a]pyridin-2-yl)methyl]-N-(5,6,7,8-tetrahydro-8-quinolinyl)-1,4-butanediamine] | – | 135 nM | 2290 nM | > 100000 nM | 0.1 to 0.5 µM | 0.31 µM | – | –
7 | NCCCCN(Cc1cn2c(N3CCCC3)cccc2n1)C1CCCc2cccnc21 (centres unmarked) [Example 21, N-{[5-(1-Pyrrolidinyl)imidazo[1,2-a]pyridin-2-yl]methyl}-N-(5,6,7,8-tetrahydro-8-quinolinyl)-1,4-butanediamine] | – | 20 nM | 102 nM | > 100000 nM | – | – | 0.038 µM | < 0.1 µM
8 | NCCCCN(Cc1cn2c(N3CCNCC3)cccc2n1)C1CCCc2cccnc21 (centres unmarked) [Example 22, N-{[5-(1-piperazinyl)imidazo[1,2-a]pyridin-2-yl]methyl}-N-(5,6,7,8-tetrahydro-8-quinolinyl)-1,4-butanediamine] | – | 2.88 nM | 2.82 nM | > 100000 nM | < 0.1 µM | 0.0022 µM | – | –
9 | NCCCCN(Cc1cn2c(N3CCOCC3)cccc2n1)C1CCCc2cccnc21 (centres unmarked) [Example 23, N-{[5-(4-Morpholinyl)imidazo[1,2-a]pyridin-2-yl]methyl}-N-(5,6,7,8-tetrahydro-8-quinolinyl)-1,4-butanediamine] | – | 158 nM | 324 nM | > 100000 nM | < 0.1 µM | 0.077 µM | – | –
10 | CN1CCN(c2cccc3nc(CN(CCCCN)C4CCCc5cccnc54)cn23)CC1 (centres unmarked) [Example 24, N-{[5-(4-Methyl-1-piperazinyl)imidazo[1,2-a]pyridin-2-yl]methyl}-N-(5,6,7,8-tetrahydro-8-quinolinyl)-1,4-butanediamine] | – | 41.7 nM | 4.9 nM | > 100000 nM | < 0.1 µM | 0.0036 µM | – | –
11 | COc1cccc2nc(CN(CCCCN)C3CCCc4cccnc43)cn12 (centres unmarked) [Example 25, N-{[5-(Methyloxy)imidazo[1,2-a]pyridin-2-yl]methyl}-N-(5,6,7,8-tetrahydro-8-quinolinyl)-1,4-butanediamine] | – | 10.2 nM | 123 nM | > 100000 nM | < 0.1 µM | 0.015 µM | – | –
12 | NCCCCN(Cc1cn2c(N)cccc2n1)C1CCCc2cccnc21 (centres unmarked) [Example 26, N-[(5-Aminoimidazo[1,2-a]pyridin-2-yl)methyl]-N-(5,6,7,8-tetrahydro-8-quinolinyl)-1,4-butanediamine] | – | 11.5 nM | 39.8 nM | > 100000 nM | < 0.1 µM | 0.014 µM | – | –
